From patent US9540323B2 (BRISTOL-MYERS SQUIBB COMPANY, priority 2012, dated 2017) come the findings set out here.

Assay [1] has as its target cloned human P2Y1 receptors (Homo sapiens (Human), UniProt P47900). Kind of assay: Binding Assay B - Scintillation Proximity Assay (SPA) for P2Y1 binding, [33P] 2MeS-ADP. Particulars: SPA, 0.3 nM [33P] 2MeS-ADP, Cheng-Prusoff; read-out: P2Y1 Ki (nM) using binding assay B. The protocol:
Binding Assay B—Scintillation Proximity Assay (SPA) for P2Y1 Binding
A SPA membrane binding assay was used to identify inhibitors of [^33P] […] Reactions were allowed to proceed to completion at room temperature for 1 hour followed by centrifugation of the plate for 5 min. About 40 μL of the aqueous solution was aspirated. Plates were sealed and the [^33P]

For assay [2], the system named is human platelet rich plasma (PRP). Kind of assay: ADP induced platelet aggregation assay. Particulars: Homo sapiens, Platelet, 5 min, read-out: PA IC50 (μM) @ 10 μM ADP, human PRP, 10 μM ADP, AUC at 5 minute.

Sequence of cloned human P2Y1 receptors (P47900 whole entry): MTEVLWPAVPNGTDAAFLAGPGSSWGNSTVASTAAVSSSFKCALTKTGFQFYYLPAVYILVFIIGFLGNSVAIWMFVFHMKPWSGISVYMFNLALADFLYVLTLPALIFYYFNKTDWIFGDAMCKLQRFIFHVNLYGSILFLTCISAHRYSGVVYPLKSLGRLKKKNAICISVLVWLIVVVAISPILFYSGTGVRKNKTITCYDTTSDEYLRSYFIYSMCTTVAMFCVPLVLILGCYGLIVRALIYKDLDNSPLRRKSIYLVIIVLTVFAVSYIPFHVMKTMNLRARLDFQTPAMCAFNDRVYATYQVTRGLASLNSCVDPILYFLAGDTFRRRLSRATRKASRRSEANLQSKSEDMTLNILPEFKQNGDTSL

As to `Cc1c(-c2c(F)cc(O)c3c2C(C)(C)CN3c2ccccc2NC(=O)Nc2ccc(OC(F)(F)F)cc2)cnn1-c1ccccc1` [Example 186, 1-(2-(5-Fluoro-7-hydroxy-3,3-dimethyl-4-(5-methyl-1-phenyl-1H-pyrazol-4-yl)indolin-1-yl)phenyl)-3-(4-(trifluoromethoxy)phenyl)urea], in assay [1], the Ki was 17.6 nM. In addition, in assay [2], the concentration for half-maximal inhibition (IC50) turned out to be 0.67 µM.

As to `Cc1nn(C)c(C)c1-c1c(F)cc(O)c2c1C(C)(C)CN2c1ccccc1NC(=O)Nc1ccc(OC(F)(F)F)cc1` [Example 187, 1-(2-(5-Fluoro-7-hydroxy-3,3-dimethyl-4-(1,3,5-trimethyl-1H-pyrazol-4-yl)indolin-1-yl)phenyl)-3-(4-(trifluoromethoxy)phenyl)urea], in assay [1], the Ki worked out at 19.2 nM. In addition, the IC50 in assay [2] stood at 1.07 µM.

`CC1(C)CN(c2ccccc2NC(=O)Nc2ccc(OC(F)(F)F)cc2)c2c(O)cc(F)c(-c3ccc(F)nc3)c21` [Example 188, 1-(2-(5-Fluoro-4-(6-fluoropyridin-3-yl)-7-hydroxy-3,3-dimethylindolin-1-yl)phenyl)-3-(4-(trifluoromethoxy)phenyl)urea]: in assay [1], the Ki came out at 4.7 nM. Also, the IC50 in assay [2] was found to be 0.38 µM.

With `CSc1ncc(-c2c(F)cc(O)c3c2C(C)(C)CN3c2ccccc2NC(=O)Nc2ccc(OC(F)(F)F)cc2)cn1` [Example 189, 1-(2-(5-Fluoro-7-hydroxy-3,3-dimethyl-4-(2-(methylthio)pyrimidin-5-yl)indolin-1-yl)phenyl)-3-(4-(trifluoromethoxy)phenyl)urea], the inhibition constant (Ki) in assay [1] was found to be 7.2 nM. Also, the IC50 in assay [2] was 0.25 µM.

In the case of `CC1(C)CN(c2ccccc2NC(=O)Nc2ccc(OC(F)(F)F)cc2)c2c(O)cc(F)c(-c3ccnc(F)c3)c21` [Example 190, 1-(2-(5-Fluoro-4-(2-fluoropyridin-4-yl)-7-hydroxy-3,3-dimethylindolin-1-yl)phenyl)-3-(4-(trifluoromethoxy)phenyl)urea], the Ki in assay [1] worked out at 10.6 nM. For the same molecule, the half-inhibitory concentration (IC50) in assay [2] came to 0.48 µM.

Turning to `Cc1cc(-c2c(F)cc(O)c3c2C(C)(C)CN3c2ccccc2NC(=O)Nc2ccc(OC(F)(F)F)cc2)ccn1` [Example 191, 1-(2-(5-Fluoro-7-hydroxy-3,3-dimethyl-4-(2-methylpyridin-4-yl)indolin-1-yl)phenyl)-3-(4-(trifluoromethoxy)phenyl)urea], the inhibition constant (Ki) in assay [1] amounted to 12.3 nM. In addition, the IC50 in assay [2] was determined as 0.19 µM.

On to `Cc1cc(-c2c(F)cc(O)c3c2C(C)(C)CN3c2ccccc2NC(=O)Nc2ccc(OC(F)(F)F)cc2)cnc1F` [Example 192, 1-(2-(5-Fluoro-4-(6-fluoro-5-methylpyridin-3-yl)-7-hydroxy-3,3-dimethylindolin-1-yl)phenyl)-3-(4-(trifluoromethoxy)phenyl)urea], for which the inhibition constant Ki in assay [1] amounted to 8.8 nM. Also, the IC50 in assay [2] was determined as 0.26 µM.

For the molecule `CC1(C)CN(c2ccccc2NC(=O)Nc2ccc(OC(F)(F)F)cc2)c2c(O)ccc(-c3ccc(F)cc3)c21` [Example 193, 1-(2-(4-(4-Fluorophenyl)-7-hydroxy-3,3-dimethylindolin-1-yl)phenyl)-3-(4-(trifluoromethoxy)phenyl)urea], the Ki in assay [1] turned out to be 6.9 nM. In assay [2], the IC50 came out at 0.12 µM.

Take `CC1(C)CN(c2ccccc2NC(=O)Nc2ccc(OC(F)(F)F)cc2)c2c(O)cc(F)c(-c3ccc(F)cc3)c21` [Example 194, 1-(2-(5-Fluoro-4-(4-fluorophenyl)-7-hydroxy-3,3-dimethylindolin-1-yl)phenyl)-3-(4-(trifluoromethoxy)phenyl)urea]: the inhibition constant Ki in assay [1] worked out at 6.7 nM. Besides, in assay [2], the IC50 came out at 0.26 µM.

With `CC1(C)CN(c2ccccc2NC(=O)Nc2ccc(OC(F)(F)F)cc2)c2c(O)ccc(-c3ccccc3)c21` [Example 195, 1-(2-(7-Hydroxy-3,3-dimethyl-4-phenylindolin-1-yl)phenyl)-3-(4-(trifluoromethoxy)phenyl)urea], the Ki in assay [1] turned out to be 9 nM. Further, in assay [2], the IC50 turned out to be 0.18 µM.

`CC1(C)CN(c2ccccc2NC(=O)Nc2ccc(OC(F)(F)F)cc2)c2c(O)ccc(-c3ccc(C(F)(F)F)cc3)c21` [Example 196, 1-(2-(7-Hydroxy-3,3-dimethyl 4-(4-(trifluoromethyl)phenyl)indolin-1-yl)phenyl)-3-(4-(trifluoromethoxy)phenyl)urea]: the Ki in assay [1] came out at 8 nM. Also, in assay [2], the concentration for half-maximal inhibition (IC50) came out at 0.23 µM.

`CC1(C)CN(c2ccccc2NC(=O)Nc2ccc(OC(F)(F)F)cc2)c2c(O)ccc(-c3cc(F)cc(F)c3)c21` [Example 197, 1-(2-(4-(3,5-Difluorophenyl)-7-hydroxy-3,3-dimethylindolin-1-yl)phenyl)-3-(4-(trifluoromethoxy)phenyl)urea]: in assay [1], the Ki was determined as 5.1 nM. Besides, the IC50 in assay [2] worked out at 0.18 µM.

As to `CC1(C)CN(c2ccccc2NC(=O)Nc2csc(Cl)n2)c2c(O)ccc(-c3ccc(F)cc3)c21` [Example 198, 1-(2-Chlorothiazol-4-yl)-3-(2-(4-(4-fluorophenyl)-7-hydroxy-3,3-dimethylindolin-1-yl)phenyl)urea], the Ki in assay [1] was found to be 4.9 nM. For the same molecule, the 50% inhibitory concentration (IC50) in assay [2] amounted to 0.09 µM.

As for `CC1(C)CN(c2ccccc2NC(=O)Nc2nc3ccc(Cl)cc3s2)c2c(O)ccc(-c3ccc(F)cc3)c21` [Example 199, 1-(6-Chlorobenzo[d]thiazol-2-yl)-3-(2-(4-(4-fluorophenyl)-7-hydroxy-3,3-dimethylindolin-1-yl)phenyl)urea], the Ki in assay [1] is 10.1 nM. Also, the IC50 in assay [2] is 0.18 µM.

With `CC(C)CN1CCCC1c1ccc(NC(=O)Nc2ccccc2N2CC(C)(C)c3c(-c4ccc(F)cc4)ccc(O)c32)cc1` (stereo not shown) [Example 200, 1-(2-(4-(4-Fluorophenyl)-7-hydroxy-3,3-dimethylindolin-1-yl)phenyl)-3-(4-(1-isobutylpyrrolidin-2-yl)phenyl)urea], the inhibition constant (Ki) in assay [1] is 4.6 nM. Also, in assay [2], the IC50 was found to be 0.05 µM.

As to `Cc1nc(NC(=O)Nc2ccccc2N2CC(C)(C)c3c(-c4ccc(F)cc4)ccc(O)c32)cs1` [Example 201, 1-(2-(4-(4-Fluorophenyl)-7-hydroxy-3,3-dimethylindolin-1-yl)phenyl)-3-(2-methylthiazol-4-yl)urea], the Ki in assay [1] was 5.8 nM. Also, the IC50 in assay [2] came to 0.43 µM.

For `CC(C)(C)CN1CCCC1c1ccc(NC(=O)Nc2ccccc2N2CC(C)(C)c3c(-c4ccc(F)cc4)ccc(O)c32)cc1` (stereo not shown) [Example 202, 1-(2-(4-(4-Fluorophenyl)-7-hydroxy-3,3-dimethylindolin-1-yl)phenyl)-3-(4-(1-neopentylpyrrolidin-2-yl)phenyl)urea], the Ki in assay [1] is 5.7 nM. For the same molecule, in assay [2], the IC50 is 0.09 µM.

With `CC1(C)CN(c2ccccc2NC(=O)Nc2ccc(OC(F)(F)F)cc2)c2c(O)ccc(-c3ccc(F)cc3F)c21` [Example 203, 1-(2-(4-(2,4-Difluorophenyl)-7-hydroxy-3,3-dimethylindolin-1-yl)phenyl)-3-(4-(trifluoromethoxy)phenyl)urea], the inhibition constant (Ki) in assay [1] is 8 nM. Moreover, the IC50 in assay [2] amounted to 0.16 µM.

`CC1(C)CN(c2ccccc2NC(=O)Nc2ccc(OC(F)(F)F)cc2)c2c(O)ccc(-c3ccc(F)c(F)c3)c21` [Example 204, 1-(2-(4-(3,4-Difluorophenyl)-7-hydroxy-3,3-dimethylindolin-1-yl)phenyl)-3-(4-(trifluoromethoxy)phenyl)urea]: the Ki in assay [1] was 7.7 nM. The IC50 in assay [2] worked out at 0.4 µM.

On to `CC1(C)CN(c2ccccc2NC(=O)Nc2ccc(OC(F)(F)F)cc2)c2c(O)ccc(-c3ccc(Cl)cc3)c21` [Example 205, 1-(2-(4-(4-Chlorophenyl)-7-hydroxy-3,3-dimethylindolin-1-yl)phenyl)-3-(4-(trifluoromethoxy)phenyl)urea], for which the inhibitory constant (Ki) in assay [1] is 6.7 nM. The IC50 in assay [2] stood at 0.14 µM.

`CC1(C)CN(c2ccccc2NC(=O)Nc2ccc(OC(F)(F)F)cc2)c2c(O)ccc(-c3cccc(F)c3)c21` [Example 206, 1-(2-(4-(3-Fluorophenyl)-7-hydroxy-3,3-dimethylindolin-1-yl)phenyl)-3-(4-(trifluoromethoxy)phenyl)urea]: the Ki in assay [1] stood at 8.5 nM. In addition, in assay [2], the IC50 turned out to be 0.24 µM.

Take `CC1(C)CN(c2ccccc2NC(=O)Nc2ccc(OC(F)(F)F)cc2)c2c(O)ccc(-c3ccccc3F)c21` [Example 207, 1-(2-(4-(2-Fluorophenyl)-7-hydroxy-3,3-dimethylindolin-1-yl)phenyl)-3-(4-(trifluoromethoxy)phenyl)urea]: the Ki in assay [1] was found to be 8.7 nM. Moreover, in assay [2], the half-maximal inhibitory concentration (IC50) was 0.08 µM.

As for `CC1(C)CN(c2ccccc2NC(=O)Nc2csc(C(F)(F)F)n2)c2c(O)ccc(-c3ccc(F)cc3)c21` [Example 208, 1-(2-(4-(4-Fluorophenyl)-7-hydroxy-3,3-dimethylindolin-1-yl)phenyl)-3-(2-(trifluoromethyl)thiazol-4-yl)urea], the Ki in assay [1] amounted to 11.4 nM. Moreover, in assay [2], the 50% inhibitory concentration (IC50) worked out at 0.25 µM.

Regarding `CC1(C)CN(c2ccccc2NC(=O)Nc2nc3ccc(Cl)nc3s2)c2c(O)ccc(-c3ccc(F)cc3)c21` [Example 209, 1-(5-Chlorothiazolo[5,4-b]pyridin-2-yl)-3-(2-(4-(4-fluorophenyl)-7-hydroxy-3,3-dimethylindolin-1-yl)phenyl)urea], the inhibition constant (Ki) in assay [1] was found to be 13 nM. The half-inhibitory concentration (IC50) in assay [2] came out at 0.23 µM.

`CC1(C)CN(c2ccccc2NC(=O)Nc2nc3ccc(F)cc3s2)c2c(O)ccc(-c3ccc(F)cc3)c21` [Example 210, 1-(6-Fluorobenzo[d]thiazol-2-yl)-3-(2-(4-(4-fluorophenyl)-7-hydroxy-3,3-dimethylindolin-1-yl)phenyl)urea]: in assay [1], the Ki was found to be 12.4 nM. In addition, the IC50 in assay [2] was determined as 0.08 µM.

On to `CC(C)CN1CCC(c2ccc(NC(=O)Nc3ccccc3N3CC(C)(C)c4c(-c5ccc(F)cc5)ccc(O)c43)cc2)CC1` [Example 211, 1-(2-(4-(4-Fluorophenyl)-7-hydroxy-3,3-dimethylindolin-1-yl)phenyl)-3-(4-(1-isobutylpiperidin-4-yl)phenyl)urea], for which the Ki in assay [1] amounted to 27.1 nM. Moreover, the half-inhibitory concentration (IC50) in assay [2] is 0.46 µM.

In general, Ki refers to the dissociation constant of the complex between target and ligand, obtained from inhibition or displacement. A word on the IC50: it is the concentration that inhibits the measured activity by half.
